The nature of experiment [1]: Inhibition of MET/VEGFR/Tie2 in human RPMI-8226 cells assessed as reduction of cell growth incubated for 72 hrs by CellTiter 96 aqueous one solution cell proliferation assay. In kind it is cell-based. The settings on record: RPMI-8226, 72 h.
Experiment [2] is described as follows: Inhibition of MET/VEGFR/Tie2 in bortezomib Resistant human RPMI-8226 cells assessed as reduction of cell growth incubated for 72 hrs by CellTiter 96 aqueous one solution cell proliferation assay. The format is cell-based. The settings on record: Bortezomib-resistant RPMI-8226, 72 h.
Experiment [3] is described as follows: Inhibition of MET/VEGFR/Tie2 in Melphalan Resistant human RPMI-8226 cells assessed as reduction of cell growth incubated for 72 hrs by CellTiter 96 aqueous one solution cell proliferation assay. In kind it is cell-based. The settings on record: Melphalan-resistant RPMI-8226 cell.
The nature of experiment [4]: Inhibition of MET/VEGFR/Tie2 in human ANBL-6 cells assessed as reduction of cell growth incubated for 72 hrs by CellTiter 96 aqueous one solution cell proliferation assay. The settings on record: ANBL-6, 72 h. The format is cell-based.
The nature of experiment [5]: Inhibition of MET/VEGFR/Tie2 in human bortezomib-resistant ANBL6 cells assessed as reduction of cell growth incubated for 72 hrs by CellTiter 96 aqueous one solution cell proliferation assay. In kind it is cell-based.
The nature of experiment [6]: Inhibition of MET/VEGFR/Tie2 in human U-266 cells assessed as reduction of cell growth incubated for 72 hrs by CellTiter 96 aqueous one solution cell proliferation assay. In kind it is cell-based. The settings on record: U-266, 72 h.
Experiment [7] can be described thus: Ratio of IC50 for inhibition of MET/VEGFR/Tie2 in human RPMI-8226 cells assessed as reduction of cell viability to IC50 for inhibition of MET/VEGFR/Tie2 in human melphalan-resistant RPMI-8226 cells assessed as reduction of cell viability. The settings on record: time 72 hrs; condition multiple myeloma.
The nature of experiment [8]: Ratio of IC50 for inhibition of MET/VEGFR/Tie2 in human RPMI-8226 cells assessed as reduction of cell viability to IC50 for inhibition of MET/VEGFR/Tie2 in human RPMI-8226/BR resistant cells assessed as reduction of cell viability. The settings on record: condition multiple myeloma.
Experiment [9] is described as follows: Ratio of IC50 for inhibition of MET/VEGFR/Tie2 in human ANBL6 cells assessed as reduction of cell viability to IC50 for inhibition of MET/VEGFR/Tie2 in human ANBL6/BR resistant cells assessed as reduction of cell viability. The settings on record: condition multiple myeloma.
Experiment [10] can be described thus: Inhibition of MEK/MAPK in human RPMI-8226 cells assessed as reduction of cell growth incubated for 72 hrs by CellTiter 96 aqueous one solution cell proliferation assay. In kind it is cell-based. The settings on record: RPMI-8226, 72 h.
Experiment [11] can be described thus: Inhibition of MEK/MAPK in bortezomib Resistant human RPMI-8226 cells assessed as reduction of cell growth incubated for 72 hrs by CellTiter 96 aqueous one solution cell proliferation assay. The format is cell-based. The settings on record: Bortezomib-resistant RPMI-8226, 72 h.
Experiment [12] in a line: Inhibition of MEK/MAPK in melphalan-resistant human RPMI-8226 cells assessed as reduction of cell growth incubated for 72 hrs by CellTiter 96 aqueous one solution cell proliferation assay. The settings on record: Melphalan-resistant RPMI-8226 cell. In kind it is cell-based.
Experiment [13] can be described thus: Ratio of IC50 for inhibition of MEK/MAPK in human RPMI-8226 cells assessed as reduction of cell viability to IC50 for inhibition of MEK/MAPK in human melphalan-resistant RPMI-8226 cells assessed as reduction of cell viability. The settings on record: time 72 hrs; condition multiple myeloma.
The nature of experiment [14]: Inhibition of MEK/MAPK in human ANBL-6 cells assessed as reduction of cell growth incubated for 72 hrs by CellTiter 96 aqueous one solution cell proliferation assay. The settings on record: ANBL-6, 72 h. In kind it is cell-based.
Experiment [15] is described as follows: Inhibition of MEK/MAPK in human bortezomib-resistant ANBL6 cells assessed as reduction of cell growth incubated for 72 hrs by CellTiter 96 aqueous one solution cell proliferation assay. The format is cell-based.
The nature of experiment [16]: Inhibition of MEK/MAPK in human U-266 cells assessed as reduction of cell growth incubated for 72 hrs by CellTiter 96 aqueous one solution cell proliferation assay. The settings on record: U-266, 72 h. In kind it is cell-based.
Experiment [17] is described as follows: Ratio of IC50 for inhibition of MEK/MAPK in human RPMI-8226 cells assessed as reduction of cell viability to IC50 for inhibition of MEK/MAPK in human RPMI-8226/BR resistant cells assessed as reduction of cell viability. The settings on record: condition multiple myeloma.
The nature of experiment [18]: Ratio of IC50 for inhibition of MEK/MAPK in human ANBL6 cells assessed as reduction of cell viability to IC50 for inhibition of MEK/MAPK in human ANBL6/BR resistant cells assessed as reduction of cell viability. The settings on record: condition multiple myeloma.
Experiment [19] in a line: Ratio of IC50 for inhibition of PI3K/mTOR in human RPMI-8226 cells assessed as reduction of cell viability to IC50 for inhibition of PI3K/mTOR in human melphalan-resistant RPMI-8226 cells assessed as reduction of cell viability. The settings on record: time 72 hrs; condition multiple myeloma.
A short description of experiment [20]: Ratio of IC50 for inhibition of PI3K/mTOR in human RPMI-8226 cells assessed as reduction of cell viability to IC50 for inhibition of PI3K/mTOR in human RPMI-8226/BR resistant cells assessed as reduction of cell viability. The settings on record: condition multiple myeloma.
Experiment [21] is described as follows: Ratio of IC50 for inhibition of PI3K/mTOR in human ANBL6 cells assessed as reduction of cell viability to IC50 for inhibition of PI3K/mTOR in human ANBL6/BR resistant cells assessed as reduction of cell viability. The settings on record: condition multiple myeloma.
Experiment [22] in a line: cells. The settings on record: Homo sapiens, RPMI-8226, 72 h.
A short description of experiment [23]: cells. The settings on record: Homo sapiens, Bortezomib-resistant RPMI-8226, 72 h.
Experiment [24] in a line: cells. The settings on record: Homo sapiens, Melphalan-resistant RPMI-8226 cell, 72 h.
Experiment [25] is described as follows: cells. The settings on record: Homo sapiens, ANBL-6, 72 h.
Experiment [26] in a line: cells. The settings on record: Homo sapiens, Bortezomib-resistant ANBL6 cell, 72 h.
Experiment [27] can be described thus: cells. The settings on record: Homo sapiens, U-266, 72 h.
Experiment [28] can be described thus: Ratio of IC50 for inhibition of BCR-ABL/KIT/LCK/EPHA/DDR in human RPMI-8226 cells assessed as reduction of cell viability to IC50 for inhibition of BCR-ABL/KIT/LCK/EPHA/DDR in human melphalan-resistant RPMI-8226 cells assessed as reduction of cell viability. The settings on record: time 72 hrs; condition multiple myeloma.
A short description of experiment [29]: Ratio of IC50 for inhibition of BCR-ABL/KIT/LCK/EPHA/DDR in human RPMI-8226 cells assessed as reduction of cell viability to IC50 for inhibition of BCR-ABL/KIT/LCK/EPHA/DDR in human RPMI-8226/BR resistant cells assessed as reduction of cell viability. The settings on record: condition multiple myeloma.
Experiment [30] is described as follows: Ratio of IC50 for inhibition of BCR-ABL/KIT/LCK/EPHA/DDR in human ANBL6 cells assessed as reduction of cell viability to IC50 for inhibition of BCR-ABL/KIT/LCK/EPHA/DDR in human ANBL6/BR resistant cells assessed as reduction of cell viability. The settings on record: condition multiple myeloma.
A short description of experiment [31]: cells. The settings on record: Homo sapiens, RPMI-8226, 72 h. This is another data set of the same source.
Experiment [32] can be described thus: cells. The settings on record: Homo sapiens, Bortezomib-resistant RPMI-8226, 72 h. This is another data set of the same source.
Experiment [33] can be described thus: cells. The settings on record: Homo sapiens, Melphalan-resistant RPMI-8226 cell, 72 h. This is another data set of the same source.
Experiment [34] can be described thus: cells. The settings on record: Homo sapiens, ANBL-6, 72 h. The source holds these as a separate data set.
The nature of experiment [35]: cells. The settings on record: Homo sapiens, Bortezomib-resistant ANBL6 cell, 72 h. This is another data set of the same source.
Experiment [36] can be described thus: cells. The settings on record: Homo sapiens, U-266, 72 h. This is another data set of the same source.

The structures appear in SMILES notation.

Take `Cn1cnc(-c2cc3nccc(Oc4ccc(NC(=S)NC(=O)Cc5ccccc5)cc4F)c3s2)c1`: the 50% inhibitory concentration (IC50) – broadly, the point on the concentration scale where inhibition reaches its midpoint – in [1] was found to be 8.91 µM; in experiment [2] it was 6.46 µM; in experiment [3], 10 µM; in experiment [4], 10 µM; in experiment [5], 9.33 µM; in [6] it was 10 µM. Besides, the entries for the “Ratio IC50” value in experiment [7], in [8] and in experiment [9] were 0.9, 1.55 and 1.07, respectively.
Turning to `O=C(NOCC1CC1)c1ccc(F)c(F)c1Nc1ccc(I)cc1Cl` [CI-1040], the IC50 in [10] amounted to 2.04 µM; in experiment [11], 7.59 µM; in experiment [12], 4.9 µM; in experiment [14], 8.13 µM; in experiment [15] it was 10 µM; in experiment [16] it was 5.13 µM. The “Ratio IC50” value in experiment [13] was 0.6; in experiment [17], 0.27; in [18] it was 0.81.
For `Cn1c(=O)n(-c2ccc(C(C)(C)C#N)cc2)c2c3cc(-c4cnc5ccccc5c4)ccc3ncc21` [DACTOLISIB], the “Ratio IC50” value worked out at 0.4 in experiment [19], 0.45 in experiment [20] and 1.68 in experiment [21]. The IC50 was determined as 0.0172 µM in “cells [22]”; 0.0382 µM in “cells [23]”; 0.0922 µM in “cells [24]”; 0.0823 µM in “cells [25]”; 0.0489 µM in “cells [26]”; 0.056 µM in “cells [27]”.
For `Cc1cn(-c2cc(NC(=O)c3ccc(C)c(Nc4nccc(-c5cccnc5)n4)c3)cc(C(F)(F)F)c2)cn1` [NILOTINIB], the “Ratio IC50” value in [28], in experiment [29] and in experiment [30] was 1 throughout. Also, the IC50 in “cells [31]” worked out at 9.83 µM; in “cells [32]”, 10 µM; in the experiment “cells [33]” it was 10 µM; in “cells [34]”, 10 µM; in “cells [35]”, 10 µM; in “cells [36]”, 10 µM.
